Test results: the METLIN SMRT retention time set (Domingo-Almenara et al. 2019)

Experiment: gradient 5% acetonitrile 3 min, to 50% in 2 min, to 85% in 15 min, held 3 min, 100 µL/min
Settings: column: Zorbax Extend-C18 2.1 x 50 mm; eluents: water / acetonitrile, 0.1% formic acid
Method in brief: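 Mixtures of ~100 pure standards were chromatographed on a Zorbax Extend-C18 column (2.1 × 50 mm, 1.8 μm) at 100 μL/min using water and acetonitrile, each with 0.1% formic acid. Detection used a quadrupole time-of-flight mass spectrometer in positive and negative ionization mode, and data collection spanned 3 months. Retention time was obtained from adduct peaks picked computationally and each checked manually.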

| SMILES | RP-LC retention time |
| --- | --- |
| O=C(NCCn1c(=O)n(Cc2ccccc2)c2cccnc21)c1ccsc1 | 750 s |
| COc1ccccc1-c1nc(-c2ccnc(N3CCOCC3)c2)no1 | 812 s |
| CCCSCCCNC(=O)c1cc2n(n1)CCCN(Cc1ccc(F)cc1)C2=O | 827 s |
| CCc1noc(C2CCCCN2C(=O)CCc2c[nH]c3ccccc23)n1 (stereo not given) | 888 s |
| O=C(CCCc1ccccc1)Nc1ccc2c(c1)CCC(=O)N2 | 724 s |
| Cc1ccc(CNC(=O)C2CCN(c3cncnc3N3CCOCC3)CC2)cc1 | 631 s |
| O=C(CSc1nnc2c3ccccc3nc(-c3ccco3)n12)NCc1nc2ccccc2[nH]1 | 625 s |
| CCOC(=O)N1CCN(c2nc(F)c3c(c2F)S(=O)(=O)CCN3CC2CCCO2)CC1 (stereo not given) | 958 s |
| Cc1nn(-c2ccc(-c3ccccc3)nn2)c(C)c1S(=O)(=O)N1CCCC1 | 996 s |
| COc1ccc(-n2nc(C)c3sc(N4CCCC(C(=O)NCC5CCCO5)C4)nc32)cc1 (stereo not given) | 895 s |
| NC(=O)Cc1csc(SCC(=O)c2ccc3c(c2)OCO3)n1 | 648 s |
| Cc1ccccc1-c1noc(C2CCCN2C(=O)Nc2cccc(F)c2)n1 (stereo not given) | 1030 s |
| Cn1cnc2cc(-c3noc(C4CC(=O)N(c5cccc(Cl)c5)C4)n3)ccc21 (stereo not given) | 697 s |
| Cc1nc(C2CCCN2Cc2ccc(F)cc2F)n[nH]1 (stereo not given) | 560 s |
| CCc1nc(-c2ccc(-c3noc(-c4ccco4)n3)cc2)cs1 | 1170 s |
| CN(CCc1ccccn1)C(=O)c1cccc(N2CCNC(c3ccccc3)C2)n1 (stereo not given) | 555 s |
| Cc1nc(C(=O)NCCCOC(C)C)c(C)n1C1CCN(C)CC1 | 547 s |
| Cc1cccc(NC(=O)N2CCc3[nH]cnc3C2c2ccncc2)c1C (stereo not given) | 546 s |
| Cc1ccc2c(c1)OCC(=O)N2Cc1nc(-c2ccc(Br)cc2)no1 | 1180 s |
| O=C(CC(c1ccccc1)c1ccccc1)Nc1cc(N2CCOCC2)ncn1 | 752 s |
| CSc1ccc(-c2nc3cnccn3c2Nc2ccc(F)cc2)cc1 | 927 s |
| Cn1cc(CCN2CCC(C(=O)NCc3ccccc3)CC2)c2cccnc21 | 588 s |
| Cc1cc2n(n1)CCC(=O)N2CCCC(=O)N1CCOCC1 | 585 s |

| SMILES | RP-LC retention time |
| --- | --- |
| COc1ccc(-c2c(C)noc2NC(C)=O)cc1S(=O)(=O)Nc1c(C)cc(C)cc1C | 838 s |
| Cc1cc2c(cc1CNC(=O)Cn1c(C)c(C#N)c3ccccc31)OCCCO2 | 894 s |
| CC(C)c1nc(-n2cccc2)sc1C(=O)NCCCN1CCCCC1 | 719 s |
| Cc1ccccc1-c1noc(Cn2c(=O)n(Cc3ccc(F)cc3)c(=O)c3sccc32)n1 | 1150 s |
| CCOC(=O)c1c(C)[nH]c(C(=O)N2CCCC(C(=O)NCCN3CCCC3)C2)c1C (stereo not given) | 603 s |
| CCOc1ccc(NC(=O)CN2C(=O)CC(c3cccs3)=Nc3ccccc32)cc1 | 951 s |
| COc1ccc(-c2nnc(COc3ccc(NC(=O)c4ccsc4)cc3)o2)cc1 | 892 s |
| CCOc1ccc(C2Cn3nnc(-c4nc(-c5ccc(F)cc5)no4)c3CO2)cc1 (stereo not given) | 1130 s |
| CC(C)c1ccc(Nc2nc3ccncc3n(C(C)C)c2=O)cc1 | 774 s |
| COc1ccc(/C=C/c2nc(Cn3c(C)nc4ccccc4c3=O)no2)cc1 | 871 s |
| CCN1C(=O)c2cc(C(=O)Nc3cccc(F)c3)nn2CC1(C)C(=O)NC1CCCC1 (stereo not given) | 834 s |
| O=C(Cn1c(-c2cnccn2)nc2ccccc21)N1CCN(C(=O)c2ccco2)CC1 | 615 s |
| Cc1nc(-c2ccccc2)cc2nn(CC(=O)N3CCOCC3)c(=O)n12 | 700 s |
| Cc1ccn2cc(C(=O)NC(C)c3ccc(F)cc3)nc2c1 (stereo not given) | 670 s |
| O=C(NCC1CCCCC1)c1ccc2ncnc(N3CCCC3)c2c1 | 675 s |
| CCn1c(C(=O)NCCCc2ccccc2)cc2sccc21 | 1050 s |
| CN(C)S(=O)(=O)c1ccc(-c2nnc(C(=O)NCc3ccncc3)o2)cc1 | 604 s |
| Cc1ccc(-c2csc(NC(=O)CCCc3nc(-c4ccccc4Cl)no3)n2)cc1 | 1180 s |
| Cc1nn(CC(=O)N2CCCN(C)CC2)c(=O)c2nc(-c3ccccc3)sc12 | 606 s |
| COC(=O)c1ccccc1Nc1c(-c2ccc(C)cc2)nc2cnccn12 | 875 s |
| O=C(NCc1ccccc1)C1CCCN(c2nnc3ccc(Cl)cn23)C1 (stereo not given) | 739 s |
| O=C(Nc1ccccc1)N1CCCC(Cn2c(C3CC3)nc3cccnc32)C1 (stereo not given) | 655 s |
